Source: patent US12662451B2, “Chemical compounds and uses thereof” (GLAXOSMITHKLINE INTELLECTUAL PROPERTY (NO.4) LIMITED, priority 2023, dated 2026)
Where a name gives a salt, the structure may show the parent alone.

Biological target: T1, recombinant full-length WRN protein (1-1432) (Homo sapiens, UniProt Q14191)
T1 construct: recombinant full-length WRN protein (1-1432)
Assay: WRN unwinding activity, fluorogenic 384-well assay (Example A)
Format: biochemical
Conditions: WRN unwinding activity, 4 hr; Table 2; read-out: 4 hr UNW pIC50 (converted)
Description: Functional WRN unwinding activity can be measured using a fluorogenic plate based 384 well assay configured to measure the separation of labeled double stranded DNA substrate. Compounds were dosed out in neat DMSO with a 1:3 serial dilution scheme. 100 nL of compound was stamped into Greiner low volume black assay plates (Greiner Cat #784076) using the Echo Acoustic Dispenser to generate assay ready plates. All solutions were prepared in assay buffer (25 mM TRIS (pH8.0), 5 mM NaCl, 2 mM MgCl2, 1 mM DTT, 0.05% BSA) for this 10 μL low volume reaction. To prepare the solutions, a 2×WRN Enzyme cocktail was made containing 200 pM of recombinant full-length WRN protein (1-1432). A 2× Substrate cocktail was made to consist of both 200 μM ATP (any ultrapure ATP sample) and 12 nM of the fluorescent quenched labeled double stranded DNA oligomer (IDT Custom synthesis; 5′-5IABkFQ (SEQ ID NO. 1)/GCACTGGCCGTCGTTTTACGGTCGTGACT-3′ (SEQ ID NO. 2): 5′-TTTTTTACTTAACGACGGCCAGTGC (SEQ ID NO. 3)/36-TAMTSP/-3′ (SEQ ID NO. 4)). To start the reaction, 5 μL of assay buffer was added to a single column to serve as the low control. Following this, 5 μL of 2×WRN Enzyme was added in all wells except the buffer low control wells. The reaction plate was covered and incubated at ambient temperature for 4 hours to allow for time dependent inhibition if it existed. After 4 hours, the addition of 5 μL of 2×-ATP/DNA substrate cocktail was added across all wells of the assay plate. This initiated the reaction, as the plate was incubated at ambient temperature for 60 minutes for the unwinding reaction to occur. A 10 mM EDTA solution was prepared and added at 5 μL across the entire plate after 60 minutes to quench the samples for an endpoint measurement. Fluorescent intensity was measured using excitation and emission wavelengths of 525 nm and 598 nm, respectively. High florescent intensity (DMSO with buffer) represents full inhibition of unwinding activity and low florescent intensity (DMSO with enzyme) represents no inhibition of unwinding activity. The potency of the compounds was determined using a four-parameter inhibition model to generate pIC50, Hill Slope, maximum inhibition (see Table 2).

T1 sequence (Q14191 whole entry): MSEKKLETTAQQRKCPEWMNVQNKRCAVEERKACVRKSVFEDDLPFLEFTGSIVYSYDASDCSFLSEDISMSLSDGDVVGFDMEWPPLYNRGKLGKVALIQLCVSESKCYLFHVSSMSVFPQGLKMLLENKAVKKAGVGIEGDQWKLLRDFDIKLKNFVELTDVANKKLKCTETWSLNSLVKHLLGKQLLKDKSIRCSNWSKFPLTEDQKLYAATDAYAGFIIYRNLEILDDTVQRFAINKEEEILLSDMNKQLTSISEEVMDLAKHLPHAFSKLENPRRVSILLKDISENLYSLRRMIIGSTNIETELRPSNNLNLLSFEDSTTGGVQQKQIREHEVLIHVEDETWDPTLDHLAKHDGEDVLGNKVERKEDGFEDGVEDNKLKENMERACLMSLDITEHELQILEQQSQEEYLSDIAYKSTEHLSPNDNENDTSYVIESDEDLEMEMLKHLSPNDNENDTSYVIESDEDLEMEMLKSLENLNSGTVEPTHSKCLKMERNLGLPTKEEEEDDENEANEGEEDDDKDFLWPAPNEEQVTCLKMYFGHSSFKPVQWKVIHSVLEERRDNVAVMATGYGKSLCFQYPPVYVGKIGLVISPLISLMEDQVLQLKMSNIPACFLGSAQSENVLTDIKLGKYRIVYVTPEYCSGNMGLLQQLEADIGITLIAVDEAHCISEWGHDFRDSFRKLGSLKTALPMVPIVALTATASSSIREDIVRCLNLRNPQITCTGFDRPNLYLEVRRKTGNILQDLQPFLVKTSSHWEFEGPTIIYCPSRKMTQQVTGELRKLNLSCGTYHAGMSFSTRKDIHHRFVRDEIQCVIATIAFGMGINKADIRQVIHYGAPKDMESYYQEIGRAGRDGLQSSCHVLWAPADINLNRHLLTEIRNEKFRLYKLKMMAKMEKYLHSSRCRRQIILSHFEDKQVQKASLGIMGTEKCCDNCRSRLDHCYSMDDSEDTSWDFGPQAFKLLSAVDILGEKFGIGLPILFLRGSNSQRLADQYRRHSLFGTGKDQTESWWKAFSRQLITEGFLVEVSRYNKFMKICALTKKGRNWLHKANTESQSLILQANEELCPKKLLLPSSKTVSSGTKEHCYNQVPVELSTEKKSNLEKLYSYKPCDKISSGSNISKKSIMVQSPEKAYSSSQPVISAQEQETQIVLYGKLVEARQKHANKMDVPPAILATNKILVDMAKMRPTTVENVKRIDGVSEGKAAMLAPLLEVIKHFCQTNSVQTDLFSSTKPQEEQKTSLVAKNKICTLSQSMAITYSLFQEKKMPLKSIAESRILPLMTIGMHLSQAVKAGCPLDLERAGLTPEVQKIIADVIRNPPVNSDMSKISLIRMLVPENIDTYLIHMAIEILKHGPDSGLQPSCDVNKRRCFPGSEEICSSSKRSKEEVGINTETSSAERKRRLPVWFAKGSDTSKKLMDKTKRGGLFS

Structure (SMILES) | IC50
Cc1nc2cc(S(=O)(=O)N(C)c3ccc([C@H]4C[C@@H](O)C[C@@H](C(=O)Nc5ccc(C(F)(F)F)cc5F)[C@H]4C(=O)O)cc3)ccc2n1C (single isomer, unassigned) [Example 142] | 2 µM
Cc1nc2cc(S(=O)(=O)N(C)c3ccc([C@H]4C[C@@H](O)C[C@@H](C(=O)Nc5ccc(C(F)(F)F)cc5F)[C@H]4C(=O)O)cc3)ccc2n1C (single isomer, unassigned) [Example 143] | 0.0158 µM
Cc1nc2cc(S(=O)(=O)N(C)c3ccc([C@H]4C[C@@H](O)C[C@@H](C(=O)Nc5ccc(C(F)(F)F)cc5F)[C@@H]4C(=O)O)cc3)ccc2n1C (single isomer, unassigned) [Example 144] | 0.0501 µM
CO[C@@H]1C[C@H](c2ccc(N(C)S(=O)(=O)c3ccc4c(c3)nc(C)n4C)cc2)[C@@H](C(=O)O)[C@H](C(=O)Nc2ccc(C(F)(F)F)cc2F)C1 (single isomer, unassigned) [Example 146] | 0.1 µM
Cc1nc2cc(S(=O)(=O)N(C)c3ccc([C@@H]4C[C@H](Oc5ccccc5)C[C@H](C(=O)Nc5ccc(C(F)(F)F)cc5F)[C@H]4C(=O)O)cc3)ccc2n1C (single isomer, unassigned) [Example 153] | 3.16 µM
Cc1nc2cc(S(=O)(=O)N(C)c3ccc([C@H]4CCC[C@@H](C(=O)Nc5ccc(C(F)(F)F)cn5)[C@@H]4C(=O)O)cc3)ccc2n1C (single isomer, unassigned) [Example 169] | 7.94 µM
Cc1nc2cc(S(=O)(=O)N(C)c3ccc([C@H]4CCC[C@@H](C(=O)Nc5c(F)cc(C(C)C)cc5F)[C@@H]4C(=O)O)cc3)ccc2n1C (single isomer, unassigned) [Example 170] | 0.0794 µM
Cc1nc2cc(S(=O)(=O)N(C)c3ccc([C@H]4CCC[C@@H](COc5ccc(C(F)(F)F)cc5)[C@@H]4C(=O)O)cc3)cc([C@@H]3CCCNC3)c2n1C (single isomer, unassigned) [Example 209, hydrochloride] | 2 µM
Cc1nc2cc(S(=O)(=O)Nc3ccc([C@H]4CCC[C@@H](C(=O)Nc5ccc(C(F)(F)F)cc5F)[C@@H]4C(=O)O)cc3)ccc2n1C (single isomer, unassigned) [Example 223] | 0.158 µM
O=C(O)[C@@H]1[C@@H](c2ccc(C3CCS(=O)(=O)C3)cc2)CCC[C@H]1C(=O)Nc1ccc(C(F)(F)F)cc1F (single isomer, unassigned) [Example 231, (1R,2S,6R)-2-(4-((R*)-1,1-dioxidotetrahydrothiophen-3-yl)phenyl)-6-((2-fluoro-4-(trifluoromethyl)phenyl)carbamoyl)cyclohexane-1-carboxylic acid] | 0.316 µM
Cc1nc2cc(S(=O)(=O)N3CCOc4cc([C@@H]5CCC[C@H](C(=O)Nc6ccc(C(F)(F)F)cc6F)[C@H]5C(=O)O)ccc43)ccc2n1C (single isomer, unassigned) [Example 242] | 0.794 µM
CN[C@@H]1C[C@H](C(=O)Nc2ccc(C(F)(F)F)cc2F)[C@@H](C(=O)O)[C@H](c2ccc(N(C)S(=O)(=O)c3ccc4c(c3)nc(C)n4C)cc2)C1 (single isomer, unassigned) [Example 257] | 0.251 µM
CC(=O)N[C@H]1C[C@H](COc2ccc(C(F)(F)F)cc2)[C@@H](C(=O)O)[C@H](c2ccc(N(C)S(=O)(=O)c3ccc4c(c3)nc(C)n4C)cc2)C1 (single isomer, unassigned) [Example 297] | 2.51 µM
Cc1nc2cc(S(=O)(=O)N(C)c3ccc([C@@H]4CNC[C@H](C(=O)Nc5ccc(C(F)(F)F)cc5F)[C@H]4C(=O)O)cc3)ccc2n1C (single isomer, unassigned) [Example 307] | 0.631 µM
N#Cc1cnnc(-c2ccc(C3CCCC(C(=O)Nc4ccc(C(F)(F)F)cc4F)[C@@H]3C(=O)O)cc2)c1 (stereo in doubt) [Example 39, (1R,2R,6S)-2-(4-(5-cyanopyridazin-3-yl)phenyl)-6-((2-fluoro-4-(trifluoromethyl)phenyl)carbamoyl)cyclohe xane-1-carboxylic acid] | 2 µM
N#Cc1ccncc1-c1ccc(C2CCCC(C(=O)Nc3ccc(C(F)(F)F)cc3F)[C@@H]2C(=O)O)cc1 (stereo in doubt) [Example 49, (1R,2R,6S)-2-(4-(4-cyanopyridin-3-yl)phenyl)-6-((2-fluoro-4-(trifluoromethyl)phenyl)carbamoyl)cyclohe xane-1-carboxylic acid] | 1 µM
CCCO[C@@H]1C[C@H](C(=O)Nc2ccc(C(F)(F)F)cc2F)[C@@H](C(=O)O)[C@H](c2ccc(N(C)S(=O)(=O)c3ccc4c(c3)nc(C)n4C)cc2)C1 (stereo in doubt) [Example 150, rel-(1R,2R,4R,6S)-2-((2-fluoro-4-(trifluoromethyl)phenyl)carbamoyl)-4-propoxy-6-(4-((N,1,2-trimethyl-1H-benzo[d]imidazole)-5-sulfonamido)phenyl)cyclohexane-1-carboxylic acid] | 3.98 µM
Cc1nc2cc(S(=O)(=O)N(C)c3ccc([C@@H]4C[C@H](OCC5CCC5)C[C@H](C(=O)Nc5ccc(C(F)(F)F)cc5F)[C@H]4C(=O)O)cc3)ccc2n1C (stereo in doubt) [Example 155, rel-(1R,2R,4R,6S)-4-(cyclobutylmethoxy)-2-((2-fluoro-4-(trifluoromethyl)phenyl)carbamoyl)-6-(4-((N,1,2-trimethyl-1H-benzo[d]imidazole)-5-sulfonamido)phenyl)cyclohexane-1-carboxylic acid] | 0.794 µM
Cc1nc2cc(S(=O)(=O)N(C)c3ccc([C@@H]4C[C@H](N(C)C)C[C@H](C(=O)Nc5ccc(C(F)(F)F)cc5F)[C@H]4C(=O)O)cc3)ccc2n1C (stereo in doubt) [Example 252, rel-(1R,2R,4R,6S)-4-(dimethylamino)-2-((2-fluoro-4-(trifluoromethyl)phenyl)carbamoyl)-6-(4-((N,1,2-trimethyl-1H-benzo[d]imidazole)-5-sulfonamido)phenyl)cyclohexane-1-carboxylic acid] | 0.0631 µM
CC(=O)N(C)[C@H]1C[C@H](C(=O)Nc2ccc(C(F)(F)F)cc2F)[C@@H](C(=O)O)[C@H](c2ccc(N(C)S(=O)(=O)c3ccc4c(c3)nc(C)n4C)cc2)C1 (stereo in doubt) [Example 293, rel-(1R,2R,4S,6S)-2-((2-fluoro-4-(trifluoromethyl)phenyl)carbamoyl)-4-(N-methylacetamido)-6-(4-((N,1,2-trimethyl-1H-benzo[d]imidazole)-5-sulfonamido)phenyl)cyclohexane-1-carboxylic acid] | 0.0316 µM
Cc1nc2cc(S(=O)(=O)N(C)c3ccc([C@@H]4C[C@@H](N)C[C@H](C(=O)Nc5ccc(C(F)(F)F)cc5F)[C@H]4C(=O)O)cc3)ccc2n1C (stereo in doubt) [Example 299, rel-(1R,2R,4S,6S)-4-amino-2-((2-fluoro-4-(trifluoromethyl)phenyl)carbamoyl)-6-(4-((N,1,2-trimethyl-1H-benzo[d]imidazole)-5-sulfonamido)phenyl)cyclohexane-1-carboxylic acid] | 0.0631 µM
Cc1nc2cc(S(=O)(=O)N(C)c3ccc([C@@H]4C[C@H](N)C[C@H](C(=O)Nc5ccc(C(F)(F)F)cc5F)[C@H]4C(=O)O)cc3)ccc2n1C (stereo in doubt) [Example 302, rel-(1R,2R,4R,6S)-4-amino-2-((2-fluoro-4-(trifluoromethyl)phenyl)carbamoyl)-6-(4-((N,1,2-trimethyl-1H-benzo[d]imidazole)-5-sulfonamido)phenyl)cyclohexane-1-carboxylic acid] | 0.126 µM
CC(=O)N1C[C@H](C(=O)Nc2ccc(C(F)(F)F)cc2F)[C@@H](C(=O)O)[C@H](c2ccc(N(C)S(=O)(=O)c3ccc4c(c3)nc(C)n4C)cc2)C1 (stereo in doubt) [Example 309, rel-(3R,4S,5R)-1-acetyl-3-((2-fluoro-4-(trifluoromethyl)phenyl)carbamoyl)-5-(4-((N,1,2-trimethyl-1H-benzo[d]imidazole)-5-sulfonamido)phenyl)piperidine-4-carboxylic acid] | 0.2 µM
Cc1nc2cc(S(=O)(=O)N(C)c3ccc([C@@H]4C[C@H](OC5CCC5)C[C@H](C(=O)Nc5ccc(C(F)(F)F)cc5F)[C@H]4C(=O)O)cc3)ccc2n1C (stereo in doubt) [Example 326, rel-(1R,2R,4R,6S)-4-cyclobutoxy-2-((2-fluoro-4-(trifluoromethyl)phenyl)carbamoyl)-6-(4-((N,1,2-trimethyl-1H-benzo[d]imidazole)-5-sulfonamido)phenyl)cyclohexane-1-carboxylic acid] | 0.631 µM
